According to patent US20060263881A1, “Methods of expanding and selecting disease associated T-Cells” (priority 1998, published 2006):
Values joined by “and” are separate entries in the source; they are usually repeats but may differ in a detail not shown here. Identical values can stand only once.

Tests used:
[1] = test system: in vivo activated gut T-lymphocytes (primary cultures C11.3, C12.1, C8.1, C8.3) from patients with Crohn's disease; assay type: cell-based, human; details: 24 h
[2] = test system: long term cultured gut T-cell cultures C1x, C2x, C4.2; assay type: cell-based, human
[3] = test system: gut T-cell cultures from patients with Crohn's disease; assay type: cell-based, human
human T-cell lines = test: Cytolysis after addition of Infliximab and incubation with fresh human serum (complement); assay type: cell-based; details: versus murine SP2/O myeloma cell results
[4] = test system: gut T-cell cultures from patients with Crohn's disease
[5] = test system: transmembrane TNFα on SP2/O myeloma cells; details: murine SP2/O myeloma cells with cleavage-resistant transmembrane TNFα; cited from earlier work

Infliximab: chimeric TNFα antibody with high avidity for transmembrane TNFα (obtained from Centocor)
Reduction of IFNγ production by Infliximab [1]: 68% and 43% and 49% and 56% | Reduction of TNFα production by Infliximab [1]: 97% | SEA induced cytokine production after addition of Infliximab (in words) [2]: reduced | Proliferation rate (in words) [3]: did not change | Complement activation / cytolysis by binding of Infliximab (in words) (human T-cell lines): could not confirm | Amount of propidium iodide and Annexin-FITC positive cells compared with SEA alone (in words) [4]: did not increase | Induction of apoptosis (in words) [4]: did not induce any apoptosis | Infliximab molecules bound per cell (Scatchard analyses) [5]: about 35000 molecules per cell
